The source made the active and inactive calls. The rule behind the calls is not given here.
Each compound was assayed against 3-phosphoinositide-dependent protein kinase 1 (Homo sapiens) (UniProt O15530) (assay: Inhibition of sucrose loaded POPC/POPE/POPS/PtdIns(3,4,5)P3 (59:20:20:1) liposome binding to eGFP-fused PDK1 PH domain (unknown origin) expressed in Escherichia coli BL21 after 10 mins by fluorescence spectrophotometry based pull down assay).
Sequence of 3-phosphoinositide-dependent protein kinase 1 (Homo sapiens) (O15530 whole entry, looked up, the tested form may be a part): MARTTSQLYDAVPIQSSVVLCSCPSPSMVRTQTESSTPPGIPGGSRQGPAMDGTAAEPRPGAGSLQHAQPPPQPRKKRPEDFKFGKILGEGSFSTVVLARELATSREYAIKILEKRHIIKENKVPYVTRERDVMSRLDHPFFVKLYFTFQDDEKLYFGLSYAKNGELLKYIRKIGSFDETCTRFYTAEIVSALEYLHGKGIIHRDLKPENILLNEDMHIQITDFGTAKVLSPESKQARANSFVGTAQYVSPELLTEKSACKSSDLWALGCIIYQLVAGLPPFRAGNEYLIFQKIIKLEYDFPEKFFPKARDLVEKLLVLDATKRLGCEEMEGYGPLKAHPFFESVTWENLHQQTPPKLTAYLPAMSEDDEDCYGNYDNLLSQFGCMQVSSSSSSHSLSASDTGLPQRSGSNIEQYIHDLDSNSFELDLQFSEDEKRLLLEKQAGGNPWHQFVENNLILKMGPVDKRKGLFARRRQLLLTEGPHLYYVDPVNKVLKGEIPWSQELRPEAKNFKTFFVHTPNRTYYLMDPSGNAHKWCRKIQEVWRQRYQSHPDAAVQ

| Compound | inhibition |
| --- | --- |
| O=c1c(O)c(-c2ccc(O)c(O)c2)oc2cc(O)cc(O)c12 | Dose-dependent effect |
| O=c1c(O)c(-c2ccc(O)c(O)c2)oc2cc(O)ccc12 | Dose-dependent effect |
| O=c1c(O)c(-c2cc(O)c(O)c(O)c2)oc2cc(O)cc(O)c12 | Dose-dependent effect |
| O=c1c(O)c(-c2ccc(O)c(O)c2)oc2c(O)c(O)cc(O)c12 | Dose-dependent effect |

Each compound was assayed against 3-phosphoinositide-dependent protein kinase 1 (Homo sapiens) (UniProt O15530) (assay: Inhibition of sucrose loaded POPC/POPE/POPS/PtdIns(3,4,5)P3 (59:20:20:1) liposome binding to eGFP-fused PDK1 PH domain (unknown origin) expressed in Escherichia coli BL21 at 10 uM after 10 mins by fluorescence spectrophotometry based pull down assay).

| Compound | inhibition |
| --- | --- |
| O=c1c(O)c(-c2ccccc2)oc2cc(O)cc(O)c12 | Active |
| O=c1c(O)c(-c2ccc(O)c(O)c2)oc2cc(O)ccc12 | Active |
| COc1cc(OC)c2c(=O)cc(-c3ccccc3)oc2c1 | Active |
| O=c1cc(-c2ccc(O)cc2)oc2cc(O)ccc12 | Active |
| O=c1cc(-c2ccccc2)oc2ccccc12 | Active |
| O=c1cc(-c2ccccc2)oc2cc(O)cc(O)c12 | Active |
| COc1ccc2c(=O)cc(-c3ccccc3)oc2c1OC | Active |

— ChEMBL document CHEMBL4000226, “Inhibitory potential of flavonoids on PtdIns(3,4,5)P3 binding with the phosphoinositide-dependent kinase 1 pleckstrin homology domain” (Bioorg Med Chem Lett, 2017)
